Results as given in patent US11707440B2 (priority 2017, dated 2023).
Like-named read-outs stand apart in the source and are kept apart here. Marks after values point to notes of the source that are not given here.

Experiments:
[1] = for Stock solution stability: stock solutions
Source text: This example provides an LC-MS/MS method for the determination of ketamine and norketamine in sodium heparin human plasma using ketamine-d4 and norketamine-d4 as the respective internal standards (IS).

[2] = Pharmacokinetics of intranasal esketamine in healthy subjects (Example 9); details: for Metabolite/Parent Ratio AUClast / Metabolite/Parent Ratio AUC∞ / Metabolite/Parent Ratio tmax / AUClast / AUC∞ / Cmax / t1/2: mean; for tmax: median
Description: Pharmacokinetic blood samples for measurement of esketamine and noresketamine concentrations in plasma were collected from predose until up to 24 hours after each intranasal esketamine regimen on Day 1 of each period.
Blood samples (4 mL each) for determination of esketamine and noresketamine plasma concentrations were collected into the appropriate collection tube (e.g., Vacutainer®) at timepoints 0.00, 0.12, 0.20, 0.37, 0.53, 0.67, 0.83, 1.00, 1.25, 1.50, 2.00, 3.00, 4.00, 6.00, 9.00, 12.00, 18.00, and 24.00 h. The total amount of blood to be drawn for clinical laboratory tests and PK evaluations is approximately 327 mL.
Plasma samples were analyzed for esketamine and noresketamine concentrations using the validated, specific and sensitive liquid chromatography coupled to tandem mass spectrometry (LC-MS/MS) achiral method of Example 8.
Serial PK blood samples (4 mL each) were collected for a 24-hour period from each subject (Periods 1, 2, and 3). […] Statistical Methods 1.6.4.1. Sample Size
The following key parameters of esketamine and noresketamine in plasma were calculated using noncompartmental methods and actual sampling times: Cmax, tmax, AUClast, AUC∞, t1/2,λ, and λz.

[3] = tested on: MDD/TRD subjects; details: 52-week safety study in MDD/TRD subjects (Berman et al., 2011); cited from earlier work
[4] = after A: Esketamine 28 mg intranasal
[5] = after B: Esketamine 56 mg intranasal
[6] = after C: Esketamine 84 mg intranasal
[7] = healthy subjects, 28, 56 and 84 mg
[8] = metabolite after A: Esketamine 28 mg intranasal
[9] = metabolite after B: Esketamine 56 mg intranasal
[10] = metabolite after C: Esketamine 84 mg intranasal

CN[C@]1(c2ccccc2Cl)CCCCC1=O [5-Ketamine]
QC sample long-term storage stability ([1]; human plasma, −20° C.): 707 days at −20 °C

NC1(c2ccccc2Cl)CCCCC1=O (stereo not drawn) [Norketamine]
QC sample freeze/thaw stability ([1]; freeze (−20° C.)/thaw (ice-water bath)): 3 freeze (−20° C.)/thaw (ice-water bath) cycles | QC sample freeze/thaw stability ([1]; freeze (−20° C.)/thaw (room temperature)): 3 freeze (−20° C.)/thaw (room temperature) cycles | QC sample bench-top stability ([1]; human plasma, room temperature): 68.5 hours at room temp | QC sample long-term storage stability ([1]; human plasma, −20° C.): 1552 days at −20 °C | Processed sample stability ([1]; room temperature): 146.5 hours at room temperature | Whole Blood Stability ([1]; room temperature and ice-water bath (0-4° C.)): 120 minutes at room temperature and in an ice-water bath | Stock solution stability (spike solutions) ([1]; spike solutions, −20° C.): 610 days at −20 °C for ketamine/norketamine spike solutions | Stock solution stability ([1]; room temperature under white light): 6 h | Stock solution stability ([1]; −20° C.): 15100 h

N[C@]1(c2ccccc2Cl)CCCCC1=O [noresketamine]
Metabolite/Parent Ratio AUClast [2, 4]: 3.62 | Metabolite/Parent Ratio AUC∞ [2, 4]: 3.80^b | Metabolite/Parent Ratio tmax [2, 4]: 1.96 h | Metabolite/Parent Ratio AUClast [2, 5]: 4.07 | Metabolite/Parent Ratio AUC∞ [2, 5]: 4.22^b | Metabolite/Parent Ratio tmax [2, 5]: 2.28 h | Metabolite/Parent Ratio AUClast [2, 6]: 4.32 | Metabolite/Parent Ratio AUC∞ [2, 6]: 4.46^d | Metabolite/Parent Ratio tmax [2, 6]: 2.55 h | AUC (AUClast and AUC∞) variability, range [2, 7]: 17.0% to 21.3 | AUClast, mean ratio of noresketamine to esketamine, range [2, 7]: 3.62 to 4.32 | AUC∞, mean ratio of noresketamine to esketamine, range [2, 7]: 3.80 to 4.46 | Cmax variability (percent coefficient of variation), range across treatment groups [2, 7]: 25.8% to 33.7 | Cmax, mean ratio of noresketamine to esketamine, range [2, 7]: 1.96 to 2.55 | Mean t1/2, range [2, 7]: 7.48 to 7.74 h | Median tmax, range across the 3 intranasal regimens ([2]; healthy subjects, 28, 56 and 84 mg intranasal esketamine): 1.25 to 1.5 h | AUClast [2, 8]: 454 ng·h/mL | AUC∞ [2, 8]: 508^ h * ng/mL | Cmax [2, 8]: 92.8 ng/mL | t1/2 [2, 8]: 7.74 h | tmax [2, 8]: 1.25 h | AUClast [2, 9]: 851 ng·h/mL | AUC∞ [2, 9]: 924^c h * ng/mL | Cmax [2, 9]: 154 ng/mL | t1/2 [2, 9]: 7.71^c h | tmax [2, 9]: 1.50 h | AUClast [2, 10]: 1287 ng·h/mL | AUC∞ [2, 10]: 1392^b h * ng/mL | Cmax [2, 10]: 241 ng/mL | t1/2 [2, 10]: 7.48^b h | tmax [2, 10]: 1.50 h

OCCOCCN1CCN(C2=Nc3ccccc3Sc3ccccc32)CC1 [quetiapine]
Discontinuation rate due to adverse events [3]: 23.7%
